Assay results from ChEMBL document CHEMBL1127007, “Quinazolinones 2: QSAR and in vivo characterization of AT1 selective AII antagonists” (Bioorg Med Chem Lett, 1993).

Columns and labels:
[1] = target: Angiotensin II receptor (Rattus norvegicus) (UniProt P29089+P25095+P35351); experiment: Duration of action as time for pressor response to fall below 30% for a single bolus by intravenous dose; assay type: functional, organism-based
Rattus norvegicus [2] = experiment: Compound was evaluated in vivo for inhibition of the AII pressor response in normotensive rat at dose 1 mg/kg, iv after 0.9 hour; assay type: functional
[3] = target: T1, Type-2 angiotensin II receptor (Homo sapiens) (UniProt P50052); experiment: In vitro antagonist activity against the Angiotensin II (type 2) receptor.; assay type: functional
T1 sequence (whole entry): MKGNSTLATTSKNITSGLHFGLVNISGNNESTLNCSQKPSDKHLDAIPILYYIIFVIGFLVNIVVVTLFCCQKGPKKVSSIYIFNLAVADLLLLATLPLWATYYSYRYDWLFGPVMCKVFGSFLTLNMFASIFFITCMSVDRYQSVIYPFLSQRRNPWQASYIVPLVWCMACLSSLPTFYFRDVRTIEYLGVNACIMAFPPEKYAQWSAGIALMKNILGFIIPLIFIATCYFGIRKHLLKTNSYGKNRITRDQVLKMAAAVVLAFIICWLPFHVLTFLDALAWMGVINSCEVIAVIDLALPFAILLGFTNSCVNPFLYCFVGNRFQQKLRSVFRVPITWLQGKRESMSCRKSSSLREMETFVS

Rattus norvegicus [4] = experiment: The duration of action is expressed as the time for the % inhibition of pressor response to fall below 30% for a single bolus of the drug administered intravenously.; assay type: functional
Rattus norvegicus [5] = experiment: Compound was evaluated in vivo for inhibition of the AII pressor response in normotensive rat at dose 1 mg/kg, iv after 0.2 hour; assay type: functional
Rattus norvegicus [6] = experiment: In vivo for inhibition of the AII pressor response in normotensive rat at dose 0.3 mg/kg(iv) after 0.8 hour; assay type: functional
Rattus norvegicus [7] = experiment: Compound was evaluated in vivo for inhibition of the AII pressor response in normotensive rat at dose 0.3 mg/kg, po; assay type: functional
[8] = target: T2, Type-1 angiotensin II receptor (Oryctolagus cuniculus, UniProt P34976); experiment: Ability to displace [125I]Sar1-Ile8-AII from angiotensin II receptor, type 1 in rabbit aorta in presence of 0.2% bovine serum albumin (BSA) was determined in vitro; assay type: tissue-based
T2 sequence (P34976 whole entry): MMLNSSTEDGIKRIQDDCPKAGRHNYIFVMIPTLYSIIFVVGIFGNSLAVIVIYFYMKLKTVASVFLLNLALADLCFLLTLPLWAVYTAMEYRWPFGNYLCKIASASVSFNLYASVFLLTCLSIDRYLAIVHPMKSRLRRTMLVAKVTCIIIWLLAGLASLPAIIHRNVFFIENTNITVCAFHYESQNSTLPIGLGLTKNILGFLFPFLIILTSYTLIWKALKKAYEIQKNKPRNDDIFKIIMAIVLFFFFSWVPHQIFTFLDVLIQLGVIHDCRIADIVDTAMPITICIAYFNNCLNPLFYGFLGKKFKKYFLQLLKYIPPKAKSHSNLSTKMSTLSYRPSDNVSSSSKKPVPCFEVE

Rattus norvegicus [9] = experiment: Compound was evaluated in vivo for inhibition of the AII pressor response in normotensive rat at dose 0.3 mg/kg, iv after 6 hours; assay type: functional
Rattus norvegicus [10] = experiment: Compound was evaluated in vivo for inhibition of the AII pressor response in normotensive rat at dose 0.3 mg/kg, iv after 3.5 hr; assay type: functional
[11] = target: T2, Type-1 angiotensin II receptor; experiment: Displacement of [125I]Sar1-Ile8-AII (without BSA) from type 1 Angiotensin II receptor of rabbit aorta; assay type: tissue-based
Rattus norvegicus [12] = experiment: The duration of action is expressed as the time for the % inhibition of pressor response to fall below 30% for a single bolus of the drug administered perorally.; assay type: functional

Duration [1] [h]	Activity [3] [nM]	IC50 [8] [nM]	IC50 [11] [nM]	SMILES	inhibition in vivo at 1 mg/kg (Rattus norvegicus [2]) [%]	Duration (Rattus norvegicus [4]) [h]	inhibition in vivo at 1 mg/kg (Rattus norvegicus [5]) [%]	inhibition in vivo at 0.3 mg/kg (Rattus norvegicus [6]) [%]	inhibition in vivo at 0.3 mg/kg (Rattus norvegicus [7]) [%]	inhibition in vivo at 0.3 mg/kg (Rattus norvegicus [9]) [%]	inhibition in vivo at 0.3 mg/kg (Rattus norvegicus [10]) [%]	Duration (Rattus norvegicus [12]) [h]
0.9	> 1000	–	–	CCCCc1nc2ccc(NC(C)=O)cc2c(=O)n1Cc1ccc(-c2ccccc2-c2nn[nH]n2)cc1	97	–	–	–	–	–	–	–
–	> 1000	–	–	CCCCc1nc2ccc(OC)cc2c(=O)n1Cc1ccc(-c2ccccc2-c2nn[nH]n2)cc1	–	0.2	49	–	–	–	–	–
0.8	> 1000	–	–	CCCCc1nc2ccc(N(C)C(=O)N(C)C(C)C)cc2c(=O)n1Cc1ccc(-c2ccccc2-c2nn[nH]n2)cc1	–	–	–	70	–	–	–	–
> 6	> 1000	0.75	0.5	CCCCc1nc2ccc(NC(=O)NC(C)C)cc2c(=O)n1Cc1ccc(-c2ccccc2-c2nn[nH]n2)cc1	–	–	–	–	0	86	86	0
